From patent US20240409572A1, “COMPOUND FOR TREATING NEURODEGENERATIVE DISEASES AND ITS ISOLATION METHOD THEREOF” (SARAWAK BIODIVERSITY COUNCIL, priority 2020, published 2024) come the findings set out here.

For the experiment, the target named is T1, recombinant human POP (Homo sapiens, UniProt P48147).
T1 construct: purchased USBiological, MA
T1 sequence (P48147 1-710): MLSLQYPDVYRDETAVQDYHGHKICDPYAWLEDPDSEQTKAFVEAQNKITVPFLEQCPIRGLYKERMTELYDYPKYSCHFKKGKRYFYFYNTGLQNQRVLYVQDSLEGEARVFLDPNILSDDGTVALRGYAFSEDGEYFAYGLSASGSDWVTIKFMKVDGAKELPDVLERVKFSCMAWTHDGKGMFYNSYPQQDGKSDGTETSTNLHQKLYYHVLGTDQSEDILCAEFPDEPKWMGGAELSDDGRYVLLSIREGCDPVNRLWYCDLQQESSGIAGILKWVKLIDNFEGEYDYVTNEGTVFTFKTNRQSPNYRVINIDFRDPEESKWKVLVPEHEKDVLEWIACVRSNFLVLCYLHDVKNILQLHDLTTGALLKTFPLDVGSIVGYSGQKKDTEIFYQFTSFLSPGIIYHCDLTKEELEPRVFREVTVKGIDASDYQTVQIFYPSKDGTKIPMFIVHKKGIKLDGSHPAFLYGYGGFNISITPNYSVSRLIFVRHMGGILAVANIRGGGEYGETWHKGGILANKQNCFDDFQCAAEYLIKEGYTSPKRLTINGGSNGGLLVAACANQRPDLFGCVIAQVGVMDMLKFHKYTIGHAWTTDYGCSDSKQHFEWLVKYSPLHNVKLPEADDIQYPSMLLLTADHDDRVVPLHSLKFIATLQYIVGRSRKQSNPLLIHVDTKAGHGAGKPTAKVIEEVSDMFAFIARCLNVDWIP
As to the kind of experiment: POP enzyme inhibition colorimetric assay (recombinant human POP). It counts as biochemical. Conditions: 0.04 mg/ml; read-out: inhibition against human POP. The protocol:
FIG. 3 illustrates the inhibition activity of FGS03 against Flavobacterium and recombinant human POP. FGS03 is tested at final concentrations of 0.02 mg/ml and 0.04 mg/ml respectively. Positive control is PE Inhibitor II, Calbiochem, USA. Each sample is tested in triplicate. Data represented as mean value with standard deviation, n=3.
The POP inhibitory activity of compound was evaluated using an enzyme inhibition assay. A colorimetric assay was set up using Flavobacterium and recombinant human POP enzymes. The POP enzyme solutions obtained from Flavobacterium (0.5 U mL^−1 giving 0.0416 units per well) and human (USBiological, MA with working concentration 0.006 mg/ml) were added to the 96-well plates containing sample extracts and phosphate buffer (100 mM, pH 7.0). The reaction was initiated with the addition of enzyme substrate, Z-Gly-Pro-4-nitroanilide (2 mM in 40% dioxane) and incubated at 30° C. for 15 minutes. Stopper buffer (2 M acetate buffer, pH 4.0 with 10% Triton-X) was added to stop the enzyme reaction. The released p-nitroanilide was determined colorimetrically with a plate reader at 414 nm. The inhibition activity was calculated using the formula:
[formula] • where blank=control without the inhibitor • OD=change in optical density during the assay.

The term inhibition denotes the drop in the measured response relative to a control, in per cent. For the molecule `CCCCCCCCCCCc1cc(O)cc(O[C@H]2O[C@@H](C(=O)O)[C@@H](O)[C@H](O)[C@H]2O)c1C(=O)O` [FGS03, (2R,3S,4S,5R,6R)-6-(2-carboxy-5-hydroxy-3-undecylphenoxy)-3,4,5-trihydroxytetrahydro-2H-pyran-2-carboxylic acid], the inhibition at 40 µg/mL is 80%.
